Patent US11613533B2, “Compounds useful for inhibiting RET kinase” (Eli Lilly and Company, priority 2020, dated 2023)
Changes are numbered by the printed parent chain.

Tests used:
[1] = target: T1, wildtype RET kinase (N-terminal GST tagged recombinant human RET cytoplasmic domain, aa 658-end) (Homo sapiens, UniProt P07949); experiment: RET enzyme assay (HTRF KinEASE TK), wildtype; format: biochemical; settings: 1 mM ATP, 60 min incubation at 22° C.
T1 construct: human RET cytoplasmic domain (aa 658-end); GST (N); purchased Eurofins 14-570M
T1 sequence (P07949 658-1114 limits assumed): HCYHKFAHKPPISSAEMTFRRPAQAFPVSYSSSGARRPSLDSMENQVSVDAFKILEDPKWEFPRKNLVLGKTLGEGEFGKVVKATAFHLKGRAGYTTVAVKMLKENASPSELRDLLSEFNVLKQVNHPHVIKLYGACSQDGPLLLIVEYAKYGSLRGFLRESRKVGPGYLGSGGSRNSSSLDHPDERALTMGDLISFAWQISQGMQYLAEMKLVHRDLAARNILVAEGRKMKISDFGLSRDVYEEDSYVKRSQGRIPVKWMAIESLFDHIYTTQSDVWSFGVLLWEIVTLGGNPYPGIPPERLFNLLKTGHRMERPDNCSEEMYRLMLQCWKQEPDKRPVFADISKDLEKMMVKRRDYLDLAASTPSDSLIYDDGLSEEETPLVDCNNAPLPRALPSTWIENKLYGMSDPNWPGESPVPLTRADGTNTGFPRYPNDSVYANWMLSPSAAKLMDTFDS
Description: (§1) Assay A: RET Enzyme Assay
(§2) Compounds of formulas I, II, or III are screened for their ability to inhibit wildtype, V804M, and G810S mutant RET kinase using CisBio's HTRF® KinEASE™TK assay technology. N-terminal GST tagged recombinant human RET cytoplasmic domain (aa 658-end) from Eurofins ([…]; Catalog No. 14-570M) or N-terminal GST tagged recombinant human V804M mutant RET cytoplasmic domain (aa 658-end) from Millipore (1.25 nM enzyme; Catalog No. 14-760) or N-Terminal GST-tagged recombinant human G810S (aa-658-end) (1.25 nM Enzyme; produced in insect cells) is incubated with 62.5 nM TK-substrate biotin (CisBio, part of Catalog No. 62TK0PEC) and 1 mM ATP along with test compound (0.4% final DMSO in the assay) in a 1× Cisbio enzymatic buffer consisting of […], 5 mM MgCl2, 0.04% BSA and 0.05% Tween20 in a volume of 10 μL. Compounds are typically prepared in a threefold serial dilution in DMSO and added to the assay to give the appropriate final concentration. After a 40-60 min (40 min for V804M, 60 min for WT and G810S) incubation at 22° C., the reaction is quenched by adding quench solution (10 μL) containing 7.8 nM Streptavidine-XL665 and 0.5×TK-ab-Cryptate in HTRF detection buffer (all from CisBio, part of Cat. No. 62TK0PEC). After a 60-80 min incubation (60 minutes for WT, 80 minutes for V804M and G810S) at 22° C., the extent of reaction is determined using a PHERastar plate reader via HTRF detection at excitation/emission 337/665 nm. Percent of inhibition is calculated with 0% inhibition referring to control conditions containing no compound (0.4% DMSO only) and 100% inhibition represented by conditions containing no enzyme. The % inhibition values are fit to a 4 parameter logistic curve, and the determined IC50 value is defined as the estimated concentration of inhibitor at the inflexion point of the fitted curve.

[2] = target: T2, G810S mutant RET kinase (N-Terminal GST-tagged recombinant human G810S, aa-658-end) (Homo sapiens, UniProt P07949, G810S); experiment: RET enzyme assay (HTRF KinEASE TK), G810S; format: biochemical; settings: 1 mM ATP, 60 min incubation at 22° C.
T2 construct: recombinant human G810S (aa-658-end); GST (N); made in house; host or cells: insect cells
T2 sequence (P07949 658-1114 G810S limits assumed): T1 sequence (P07949 658-1114 limits assumed) with G153S
Description: as §1, §2

IC50 [1]: < 100 nM
IC50 [2]: < 100 nM
Compound: CC(C(=O)Nc1cc(CC(C)(C)C)no1)c1ccc(-c2nn(C(C)C)c(N)c2C(N)=O)cc1 (single isomer, unassigned; isomer 1) [Example 1, 5-Amino-3-[4-(1-[[3-(2,2-dimethylpropyl)-1,2-oxazol-5-yl]carbamoyl]ethyl)phenyl]-1-isopropylpyrazole-4-carboxamide, Isomer 1]
